Test results as given in patent US12605376B2, “Methods of treating relapsing multiple sclerosis using an inhibitor of Bruton's tyrosine kinase” (Genentech, Inc., priority 2020, dated 2026).
Where two headings read alike, the source gives them in different places. Marks after values point to notes of the source that are not given here.

What was measured:
[1] = without specific elimination procedures; cited from earlier work
[2] = tested on: cells of myeloid progenitor lineage (basophils); experiment: Inhibition of myeloid lineage progenitor cell activation (FcR signaling, basophils); type: cell-based; conditions: (±SEM)
B cells = experiment: Inhibition of B cell activation (B-cell receptor signalling); type: cell-based; conditions: (±SEM)
[3] = tested on: panel of over 200 human kinases; conditions: Crawford, et al., cited from earlier work
B cells (CD69) = conditions: B cell activation, human whole blood, literature values, cited from earlier work
basophils (CD63) = conditions: basophil activation, human whole blood, literature values, cited from earlier work
[4] = Safety analysis of previous fenebrutinib clinical trials in RA, SLE and CSU
[5] = tested on: panel of over 200 human kinases; experiment: Kinase selectivity screen in a panel of over 200 human kinases; type: biochemical; conditions: for # off-target kinases >50% INH/# total kinases tested @ 1 μM: unpublished
[6] = patients with autoimmune conditions

In the case of `C/C(O)=C(\C#N)C(=O)Nc1ccc(C(F)(F)F)cc1` [teriflunomide], the “time to lower plasma teriflunomide concentrations to 0.02 mg/L” value [1] is given as “up to 2 years”.

`C[C@H]1CN(C2COC2)CCN1c1ccc(Nc2cc(-c3ccnc(N4CCn5c(cc6c5CC(C)(C)C6)C4=O)c3CO)cn(C)c2=O)nc1` [Fenebrutinib, (S)-2-(3′-(hydroxymethyl)-1-methyl-5-((5-(2-methyl-4-(oxetan-3-yl)piperazin-1-yl)pyridin-2-yl)amino)-6-oxo-1,6-dihydro-[3,4′-bipyridin]-2′-yl)-7,7-dimethyl-2,3,4,6,7,8-hexahydro-1H-cyclopenta[4,5]pyrrolo[1,2-a]pyrazin-1-one] showed an EC50 [2] of 15 nM, an EC90 [2] of 62 nM and an EC50 (B cells) of 8 nM. The EC90 (B cells) was 65 nM, the “# off-target kinases >50% INH/# total kinases tested @ 1 μM” value ([3]; J Med Chem 2018, listed as FEN) was 3/286 and the “# off-target kinases >50% INH/# total kinases tested @ 1 μM” value ([3]; J Med Chem 2018) was 2/286 ^a. The IC50 (B cells (CD69)) was 8.4 nM, the IC50 (B cells (CD69); listed as FEN) was 8 nM and the IC50 (basophils (CD63)) was 30.7 nM. For the same molecule, the IC50 (basophils (CD63); listed as FEN) was 31 nM, the “Headache, investigator-reported events” value ([4]; 200 mg twice daily, n = 299) was 16 (5.4%) patients (%) and the “Nasopharyngitis, investigator-reported events” value ([4]; 200 mg twice daily, n = 299) was 18 (6.0%) patients (%). For the same molecule, the “Nausea, investigator-reported events” value ([4]; 200 mg twice daily, n = 299) was 17 (5.7%) patients (%), the “Number of patients with AE leading to treatment withdrawal” value ([4]; 200 mg twice daily, n = 299) was 32 (10.7%) patients (%) and the “Number of patients with Serious AE” value ([4]; 200 mg twice daily, n = 299) was 18 (6.0%) patients (%). For the same molecule, the “Number of patients with Serious AE related to blinded fenebrutinib” value ([4]; 200 mg twice daily, n = 299) was 6 (2.0%) patients (%), the “Number of patients with Study withdrawal due to AE” value ([4]; 200 mg twice daily, n = 299) was 17 (5.7%) patients (%) and the “Total adverse events (AEs)” value ([4]; 200 mg twice daily, n = 299, RA/SLE/CSU trials) was 507. The “Number of patients with Fatal AE” value ([4]; 200 mg twice daily, n = 299, death deemed unrelated to fenebrutinib) was 1 (0.3%) patients (%), the “Percent of patients with infection adverse events” value (“Percent of patients” below) ([4]; CSU, 200 mg, n = 52, median follow-up 56 days) was 32.7% (n = 52) and the “Percent of patients” value ([4]; RA cohort 1, 200 mg, n = 110, median follow-up 84 days) was 10.9% (n = 110). For the same molecule, the “Percent of patients” value ([4]; RA cohort 2, 200 mg, n = 49, median follow-up 84 days) was 6.1% (n = 49), the “Percent of patients” value ([4]; SLE, 200 mg, n = 88, median follow-up 336 days) was 46.6% (n = 88) and the “infection rates in fenebrutinib arms compared to placebo” value ([4]; background immunosuppressant therapy in RA and SLE) was “no imbalance of infection rates”. The “patients with serious infections” value ([4]; combined fenebrutinib arms) was 2.0%, the “bleeding or bruising, patients” value ([4]; fenebrutinib arms) was 7.7% and the “Hy's law cases” value [4, 6] was “no Hy's law cases”. The “risk causally associated with fenebrutinib (liver aminotransferase elevations)” value [4, 6] was “Asymptomatic and reversible liver aminotransferase elevations were the only risk causally associated with fenebrutinib” and the “atrial fibrillations, flutters, or other supraventricular tachyarrhythmias” value ([4]; randomized clinical trial patients) was “No fenebrutinib randomized clinical trial patients had atrial fibrillations, flutters, or other supraventricular tachyarrhythmias”.

In the case of `C=CC(=O)N1CCC(CNc2ncnc(N)c2-c2ccc(Oc3ccccc3)cc2)CC1` [Evobrutinib], the “off-target kinases inhibited by >50% / kinases tested at 10 μM” value ([5]; 10 μM) is reported as 18/218, the EC50 [2] is reported as 171 nM and the EC90 [2] is reported as 3100 nM. The EC50 (B cells) was 161 nM, the EC90 (B cells) was 524 nM and the “# off-target kinases >50% INH/# total kinases tested @ 1 μM” value ([3]; J Med Chem 2018, listed as EVO) was 3/221. For the same molecule, the “# off-target kinases >50% INH/# total kinases tested @ 1 μM” value ([3]; J Med Chem 2018) was 3/221 ^a, the IC50 (B cells (CD69)) was 84 nM and the IC50 (basophils (CD63)) was 1660 nM.

For `C=CC(=O)N1CCC[C@@H](n2c(=O)n(-c3ccc(Oc4ccccc4)cc3)c3c(N)nccc32)C1` [Tolebrutinib], the “# off-target kinases >50% INH/# total kinases tested @ 1 μM” value [5] was 19/218 ^d, the “# off-target kinases >50% INH/# total kinases tested @ 1 μM” value ([5]; listed as TOL) was 19/218 and the EC50 [2] was 80 nM. For the same molecule, the EC90 [2] was 281 nM, the EC50 (B cells) was 26 nM and the EC90 (B cells) was 84 nM. The IC50 (B cells (CD69)) was 10 nM and the IC50 (basophils (CD63)) was 166 nM.
